In ChEMBL document CHEMBL1201862, “PubChem BioAssay data set” (2004):
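Assay format: 96-well plates, 48-hour exposure. GI50 marks 50% less growth.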 Active and inactive are the calls of the source. Cut-off read from the data, not from the text of the source: active = GI50 up to about 1.1 µM and inactive = higher.

Assays:
Assay in all cases: inhibition of tumour cell growth, NCI panel, 48 h
786-0 = tested on: 786-0
A498 = tested on: A498
A549 = tested on: A549
ACHN = tested on: ACHN
CAKI-1 = tested on: CAKI-1
CCRF-CEM = tested on: CCRF-CEM
COLO 205 = tested on: COLO 205
DU-145 = tested on: DU-145
EKVX = tested on: EKVX
HCC 2998 = tested on: HCC 2998
HCT-116 = tested on: HCT-116
HCT-15 = tested on: HCT-15
HL-60 = tested on: HL-60
HOP-62 = tested on: HOP-62
HOP-92 = tested on: HOP-92
HT-29 = tested on: HT-29
Hs-578T = tested on: Hs-578T
IGROV-1 = tested on: IGROV-1
K562 = tested on: K562
KM12 = tested on: KM12
LOX IMVI = tested on: LOX IMVI
M14 = tested on: M14
MCF7 = tested on: MCF7
MDA-MB-231 = tested on: MDA-MB-231
MDA-MB-435 = tested on: MDA-MB-435
MDA-N = tested on: MDA-N
MOLT-4 = tested on: MOLT-4
Malme-3M = tested on: Malme-3M
NCI-H226 = tested on: NCI-H226
NCI-H23 = tested on: NCI-H23
NCI-H460 = tested on: NCI-H460
NCI-H522 = tested on: NCI-H522
NCI/ADR-RES = tested on: NCI/ADR-RES
OVCAR-3 = tested on: OVCAR-3
OVCAR-4 = tested on: OVCAR-4
OVCAR-5 = tested on: OVCAR-5
OVCAR-8 = tested on: OVCAR-8
PC-3 = tested on: PC-3
RPMI-8226 = tested on: RPMI-8226
RXF 393 = tested on: RXF 393
SF-268 = tested on: SF-268
SF-295 = tested on: SF-295
SF-539 = tested on: SF-539
SK-MEL-28 = tested on: SK-MEL-28
SK-MEL-2 = tested on: SK-MEL-2
SK-MEL-5 = tested on: SK-MEL-5
SK-OV-3 = tested on: SK-OV-3
SN12C = tested on: SN12C
SNB-19 = tested on: SNB-19
SNB-75 = tested on: SNB-75
SR = tested on: SR
SW-620 = tested on: SW-620
T47D = tested on: T47D
TK-10 = tested on: TK-10
U-251 = tested on: U-251
UACC-257 = tested on: UACC-257
UACC-62 = tested on: UACC-62
UO-31 = tested on: UO-31

SMILES: Cc1ccc2[nH]c(=N/c3ccccc3C)/c(=N\c3ccccc3C)[nH]c2c1
- GI50 (786-0): 30 µM (inactive)
- GI50 (A498): 26.9 µM (inactive)
- GI50 (A549): 20.5 µM (inactive)
- GI50 (ACHN): 31.3 µM (inactive)
- GI50 (CAKI-1): 27.9 µM (inactive)
- GI50 (CCRF-CEM): > 46.8 µM (inactive)
- GI50 (COLO 205): 16.1 µM (inactive)
- GI50 (DU-145): 41.1 µM (inactive)
- GI50 (EKVX): 24.5 µM (inactive)
- GI50 (HCC 2998): 23.5 µM (inactive)
- GI50 (HCT-116): 17.7 µM (inactive)
- GI50 (HCT-15): 22.3 µM
- GI50 (HL-60): 46.2 µM (inactive)
- GI50 (HOP-62): 40.2 µM (inactive)
- GI50 (HOP-92): 19.4 µM (inactive)
- GI50 (HT-29): 23 µM (inactive)
- GI50 (Hs-578T): 24.1 µM (inactive)
- GI50 (IGROV-1): 20 µM (inactive)
- GI50 (K562): 23.8 µM (inactive)
- GI50 (KM12): 17.6 µM (inactive)
- GI50 (LOX IMVI): 20 µM (inactive)
- GI50 (M14): 43.8 µM (inactive)
- GI50 (MCF7): 77.3 µM (inactive)
- GI50 (MDA-MB-231): 17.1 µM (inactive)
- GI50 (MDA-MB-435): 32.2 µM (inactive)
- GI50 (MDA-N): 25.5 µM (inactive)
- GI50 (MOLT-4): > 100 µM (inactive)
- GI50 (Malme-3M): 22.2 µM (inactive)
- GI50 (NCI-H226): 29.2 µM (inactive)
- GI50 (NCI-H23): 15.7 µM (inactive)
- GI50 (NCI-H460): 17.3 µM (inactive)
- GI50 (NCI-H522): 10.2 µM (inactive)
- GI50 (NCI/ADR-RES): 30 µM (inactive)
- GI50 (OVCAR-3): 22.4 µM (inactive)
- GI50 (OVCAR-4): 47.2 µM (inactive)
- GI50 (OVCAR-5): 21.5 µM (inactive)
- GI50 (OVCAR-8): 34.3 µM (inactive)
- GI50 (PC-3): 31.3 µM (inactive)
- GI50 (RPMI-8226): > 100 µM (inactive)
- GI50 (RXF 393): 17.3 µM (inactive)
- GI50 (SF-268): 48.1 µM (inactive)
- GI50 (SF-295): 21.4 µM (inactive)
- GI50 (SF-539): 37.2 µM (inactive)
- GI50 (SK-MEL-28): 64.4 µM (inactive)
- GI50 (SK-MEL-2): 12.7 µM (inactive)
- GI50 (SK-MEL-5): 22.1 µM (inactive)
- GI50 (SK-OV-3): 43 µM (inactive)
- GI50 (SN12C): 32.7 µM (inactive)
- GI50 (SNB-19): 46.8 µM (inactive)
- GI50 (SNB-75): 34.7 µM (inactive)
- GI50 (SR): > 100 µM (inactive)
- GI50 (SW-620): 32.3 µM (inactive)
- GI50 (T47D): 19.3 µM (inactive)
- GI50 (TK-10): 38.5 µM (inactive)
- GI50 (U-251): 26.1 µM (inactive)
- GI50 (UACC-257): 25.6 µM (inactive)
- GI50 (UACC-62): 26.3 µM (inactive)
- GI50 (UO-31): 19.4 µM (inactive)

SMILES: COC(=O)CCN1CCN(CCO)CC1C (centres undefined)
- GI50 (786-0): > 10 µM (inactive)
- GI50 (A498): > 10 µM (inactive)
- GI50 (A549): > 10 µM (inactive)
- GI50 (ACHN): > 10 µM (inactive)
- GI50 (CAKI-1): > 10 µM (inactive)
- GI50 (CCRF-CEM): > 10 µM (inactive)
- GI50 (COLO 205): > 10 µM (inactive)
- GI50 (DU-145): > 10 µM (inactive)
- GI50 (EKVX): > 10 µM (inactive)
- GI50 (HCC 2998): > 10 µM (inactive)
- GI50 (HCT-116): > 10 µM (inactive)
- GI50 (HCT-15): > 10 µM
- GI50 (HL-60): > 10 µM (inactive)
- GI50 (HOP-62): > 10 µM (inactive)
- GI50 (HT-29): > 10 µM (inactive)
- GI50 (Hs-578T): > 10 µM (inactive)
- GI50 (IGROV-1): > 10 µM (inactive)
- GI50 (K562): > 10 µM (inactive)
- GI50 (KM12): > 10 µM (inactive)
- GI50 (LOX IMVI): > 10 µM (inactive)
- GI50 (M14): > 10 µM (inactive)
- GI50 (MCF7): > 10 µM (inactive)
- GI50 (MDA-MB-231): > 10 µM (inactive)
- GI50 (MDA-MB-435): > 10 µM (inactive)
- GI50 (MDA-N): > 10 µM (inactive)
- GI50 (MOLT-4): > 10 µM (inactive)
- GI50 (Malme-3M): > 10 µM (inactive)
- GI50 (NCI-H226): > 10 µM (inactive)
- GI50 (NCI-H23): > 10 µM (inactive)
- GI50 (NCI-H460): > 10 µM (inactive)
- GI50 (NCI-H522): > 10 µM (inactive)
- GI50 (NCI/ADR-RES): > 10 µM (inactive)
- GI50 (OVCAR-3): > 10 µM (inactive)
- GI50 (OVCAR-4): > 10 µM (inactive)
- GI50 (OVCAR-8): > 10 µM (inactive)
- GI50 (PC-3): > 10 µM (inactive)
- GI50 (RPMI-8226): > 10 µM (inactive)
- GI50 (RXF 393): > 10 µM (inactive)
- GI50 (SF-268): > 10 µM (inactive)
- GI50 (SF-295): > 10 µM (inactive)
- GI50 (SF-539): > 10 µM (inactive)
- GI50 (SK-MEL-28): > 10 µM (inactive)
- GI50 (SK-MEL-2): > 10 µM (inactive)
- GI50 (SK-MEL-5): > 10 µM (inactive)
- GI50 (SK-OV-3): > 10 µM (inactive)
- GI50 (SN12C): > 10 µM (inactive)
- GI50 (SNB-19): > 10 µM (inactive)
- GI50 (SNB-75): > 10 µM (inactive)
- GI50 (SR): > 10 µM (inactive)
- GI50 (SW-620): > 10 µM (inactive)
- GI50 (T47D): > 10 µM (inactive)
- GI50 (TK-10): > 10 µM (inactive)
- GI50 (U-251): > 10 µM (inactive)
- GI50 (UACC-257): > 10 µM (inactive)
- GI50 (UACC-62): > 10 µM (inactive)
- GI50 (UO-31): > 10 µM (inactive)
